Source: US5736557A, “N,N-bis (quinolin-4-yl)-diamine derivatives, their preparation and their use as antimalarials” (Hoffman-La Roche, Inc., priority 1994, dated 1998)
≈ marks a conversion by molar mass, not a printed value. Where two headings read alike, the source gives them in different places.

Columns and labels:
Plasmodium berghei = test: Activity against Plasmodium berghei in vivo in mice; parameters: species or system Plasmodium berghei (strain ANKA) in mice; details: mice; for inhibition in vivo at 10 mg/kg: percentage parasitemia reduction; for ED50: single peroral administration, read-out: ED50 po
Method: Test Method for the Determination of the Activity Against Plasmodium berghei in vivo
The preparations are tested on mice infected with malaria pathogens (Plasmodium berghei). Male albino mice (IBM:MORO(SPF), FUELLINSDORF) weighing about 25 g are used as the test animals. They are kept in climatized rooms at 21°-22° C. in groups of 5 animals per cage. They receive ad libitum a diet feed with a low PABA content (NAFAG FUTTER .COPYRGT. No. 9009 PAB-45, PABA content 45 mg/kg) and drinking water. On the first day of the test (DO) the test animals are infected with Plasmodium berghei (strain ANKA). For this there is used heparinized blood of a donor mouse with about 30% parasitemia, which is diluted with physiological saline such that it contains 10^8 parasitized erythrocytes per ml. 0.2 ml of this suspension is injected intravenously (i.v.) into the mice to be treated and into the control mice. In untreated control animals the parasitemia normally reaches 30-40% on the third day after the infection (D+3) and the test animals die between days +5 and +7.
The substances to be tested are dissolved or suspended in distilled water or in a mixture of 7% Tween 80, 3% alcohol (96%) and water. Usually, 0.25 ml of this solution or suspension is administered once subcutaneously and perorally to groups of 5 test animals. Treatment is effected 24 hours after the infection. 10 control animals are treated in the same manner with solvent or suspension medium per test.
All substances are tested in a first test in a single dosage of 10 mg/kg. Only those substances which in this test (10 mg/kg) have shown a parasitaemia reduction of 90% are used for the titration. Suitable dilutions of the test substance can be used to obtain an accurate titration of the activity.
48 hours after the treatment (D+3) blood smears are prepared from all animals using blood from tail veins and are stained with giemsa. The average erythrocyte infection rate (parasitemiea in %) in the control groups as well as in the groups which have been treated with the test compounds is determined by counting under a microscope. The difference in the average values of the infection rates of control group (100%) and treated groups is calculated and expressed as a percentage reduction (GI%). The ED50 or ED90 is determined mathematically by means of the JMP programme (nonlinear fit). The ED50 (ED90) in mg/kg is that dose which after single administration reduces the average erythrocyte infection rate by 50% (90%) in comparison to the control group.

[1] = system: chloroquine-resistant strains of the human-pathogenic Plasmodium falciparum; test: Growth inhibition of chloroquine-resistant Plasmodium falciparum strains in vitro; format: cell-based; details: for IC50: Plasmodium falciparum; for Resistance index: ratio of average IC50 values for resistant strains and average values for sensitive strains
Method: (§1) Test Method for the Determination of the Activity Against Plasmodium falciparum in vitro
(§2) The preparations are tested on intraerythrocytary stages of Plasmodium falciparum from asynchronous cultures according to the method of Desjardin et al. (Desjardins, R. E. et al: Quantitative assessment of antimalarial activity in vitro by a semiautomated microdilution technique. Antimicrob. Agents Chemother. 16, 710-718, (1979)).
(§3) The culture medium consists of RPMI 1640 with the addition of 25 mM HEPES, 25 mM NaHCO3, 100 μg/ml neomycin and […] (A^+). Human-A^+ erythrocytes are used as the Plasmodium falciparum host cells. The parasites are maintained at 37° C. in an atmosphere of 3% O2, 4% CO2, 9:3% N2 and 95% relative humidity.
(§4) In order to determine the activity, the preparations are dissolved in dimethyl sulphoxide, pre-diluted in the culture medium to a suitable starting concentration and subsequently titrated-out on to microtitre plates in the 2nd stage over 6-7 steps. After the addition of the parasite culture (0.7% parasitemia in 2.5% erythrocyte suspension) the test plates are incubated under the conditions given above for 48 h-72 h. The parasite growth in the different preparation concentrations is determined using [G--^3 H]-hypoxanthin incorporation compared to untreated control cultures on the same test plates. The 50% growth inhibition (IC50) is calculated according to logit regression analysis from the resulting dosage-activity curve.
(§5) The preparations are tested on at least one chloroquine-resistant and one chloroquine-sensitive Plasmodium falciparum strain. Additional sensitive and resistant strains are included for futher characterization.

[2] = system: chloroquine-sensitive strains of the human-pathogenenic Plasmodium falciparum; test: Growth inhibition of chloroquine-sensitive Plasmodium falciparum strains in vitro; format: cell-based
Method: as §1, §2, §3, §4, §5

[3] = po, single peroral dose 10 mg/kg, read-out: GI % at 10 mg/kg po
[4] = sc, single subcutaneous dose 10 mg/kg, read-out: GI % at 10 mg/kg sc
[5] = read-out: IC50 growth inhibition, strain 7G8, chloroquine-resistant
[6] = read-out: IC50 growth inhibition, strain Indo, chloroquine-resistant
[7] = read-out: IC50 growth inhibition, strain ItG2F6, chloroquine-resistant
[8] = read-out: IC50 growth inhibition, strain K1, chloroquine-resistant
[9] = read-out: IC50 growth inhibition, strain RFCF3, chloroquine-resistant
[10] = read-out: IC50 growth inhibition, strain W2, chloroquine-resistant
[11] = read-out: IC50 growth inhibition, strain W2 Mef, chloroquine-resistant
[12] = HB3, strain HB3, chloroquine-sensitive, read-out: IC50 growth inhibition
[13] = NF54, strain NF54, chloroquine-sensitive, read-out: IC50 growth inhibition
[14] = strain FCH5C2, chloroquine-sensitive, read-out: IC50 growth inhibition
[15] = strain RFMEF3, chloroquine-sensitive, read-out: IC50 growth inhibition
[16] = strain Ro73, chloroquine-sensitive, read-out: IC50 growth inhibition

| SMILES | inhibition in vivo at 10 mg/kg (Plasmodium berghei; [3]) [%] | inhibition in vivo at 10 mg/kg (Plasmodium berghei; [4]) [%] | IC50 [1, 5] [ng/mL] | IC50 [1, 6] [ng/mL] | IC50 [1, 7] [ng/mL] | IC50 [1, 8] [ng/mL] | IC50 [1, 9] [ng/mL] | IC50 [1, 10] [ng/mL] | IC50 [1, 11] [ng/mL] | Resistance index [1] | IC50 [2, 12] [ng/mL] | IC50 [2, 13] [ng/mL] | IC50 [2, 14] [ng/mL] | IC50 [2, 15] [ng/mL] | IC50 [2, 16] [ng/mL] | ED50 (Plasmodium berghei; po) [mg/kg] | IC50 ([2]; NF54, read-out: IC50 growth inhibition, strain NF54, chloroquine-sensitive) [ng/mL] | IC50 ([2]; read-out: IC50 growth inhibition, strain Ro73, chloroquine-sensitive) [ng/mL] | IC50 ([2]; read-out: IC50 growth inhibition, strain RFMEF3, chloroquine-sensitive) [ng/mL] |
| --- | --- | --- | --- | --- | --- | --- | --- | --- | --- | --- | --- | --- | --- | --- | --- | --- | --- | --- | --- |
| Clc1ccc2c(N[C@H]3CC[C@H](Nc4ccnc5cc(Cl)ccc45)CC3)ccnc2c1 [Example 4, ±-trans-N,N'-Bis-(7-chloroquinolin-4-yl)-cyclohexane-1,4-diamine] | 73 | 37 | 2.8 (≈ 0.0064 µM) | 6 (≈ 0.0137 µM) | 5.3 (≈ 0.0121 µM) | 11.6 (≈ 0.0265 µM) | 9.5 (≈ 0.0217 µM) | 13.1 (≈ 0.03 µM) | 7 (≈ 0.016 µM) | 2.1 | 3.3 (≈ 0.00755 µM) | 7.2 (≈ 0.0165 µM) | 3.6 (≈ 0.00823 µM) | 3.3 (≈ 0.00755 µM) | 1.6 (≈ 0.00366 µM) | – | – | – | – |
| Clc1ccc2c(N[C@H]3CC[C@@H](Nc4ccnc5cc(Cl)ccc45)CC3)ccnc2c1 [Example 5, cis-N,N'-Bis-(7-chloroquinolin-4-yl)-cyclohexane-1,4-diamine] | 98 | 99.9 | 9 (≈ 0.0206 µM) | 4.4 (≈ 0.0101 µM) | 6.8 (≈ 0.0155 µM) | 7.7 (≈ 0.0176 µM) | 5.1 (≈ 0.0117 µM) | 4.8 (≈ 0.011 µM) | 6.5 (≈ 0.0149 µM) | 2.1 | 3.2 (≈ 0.00732 µM) | 2.6 (≈ 0.00594 µM) | 3.9 (≈ 0.00892 µM) | 3.4 (≈ 0.00777 µM) | 2.3 (≈ 0.00526 µM) | 1.5 | – | – | – |
| Clc1ccc2c(N[C@@H]3CCC[C@H](Nc4ccnc5cc(Cl)ccc45)C3)ccnc2c1 [Example 6, cis-N,N'-Bis-(7-chloroquinolin-4-yl)-cyclohexane-1,3-diamine] | 98 | 99.9 | 3.8 (≈ 0.00869 µM) | 3 (≈ 0.00686 µM) | 4.1 (≈ 0.00937 µM) | 4.4 (≈ 0.0101 µM) | 4.2 (≈ 0.0096 µM) | 4 (≈ 0.00915 µM) | 7.6 (≈ 0.0174 µM) | 1.0 | 5.2 (≈ 0.0119 µM) | – | 6.4 (≈ 0.0146 µM) | 4.8 (≈ 0.011 µM) | – | 1.7 | 3.8 (≈ 0.00869 µM) | 3 (≈ 0.00686 µM) | – |
| C[C@H]1[C@@H](Nc2ccnc3cc(Cl)ccc23)CCC[C@H]1Nc1ccnc2cc(Cl)ccc12 [Example 8, cis,cis-N,N'-Bis-(7-chloroquinolin-4-yl)-2-methyl-cyclohexane-1,3-diamine] | 66 | 67 | 9.4 (≈ 0.0208 µM) | 6.4 (≈ 0.0142 µM) | 6.4 (≈ 0.0142 µM) | 8.8 (≈ 0.0195 µM) | 4.6 (≈ 0.0102 µM) | 5.6 (≈ 0.0124 µM) | 9.1 (≈ 0.0202 µM) | 1.3 | 6.1 (≈ 0.0135 µM) | 7.7 (≈ 0.0171 µM) | 6.1 (≈ 0.0135 µM) | 6.3 (≈ 0.014 µM) | 1.6 (≈ 0.00354 µM) | – | – | – | – |
| Clc1ccc2c(NC3CCC(CC4CCC(Nc5ccnc6cc(Cl)ccc56)CC4)CC3)ccnc2c1 (centres unmarked) [Example 12, N,N'-Bis-(7-chloroquinolin-4-yl)-dicyclohexylmethane-4,4'-diamine] | – | – | 17.1 (≈ 0.032 µM) | 13.7 (≈ 0.0257 µM) | 13.3 (≈ 0.0249 µM) | 13 (≈ 0.0244 µM) | 7.2 (≈ 0.0135 µM) | 25 (≈ 0.0469 µM) | 21.6 (≈ 0.0405 µM) | 0.9 | 26.3 (≈ 0.0493 µM) | 11.6 (≈ 0.0217 µM) | 19.4 (≈ 0.0364 µM) | – | 17.8 (≈ 0.0334 µM) | – | – | – | 13.7 (≈ 0.0257 µM) |
| Clc1ccc2c(NC/C=C/CNc3ccnc4cc(Cl)ccc34)ccnc2c1 [Example 13, N,N'-Bis-(7-chloroquinolin-4-yl)-2-butene-1,4-diamine] | – | – | – | – | – | 18.1 (≈ 0.0442 µM) | – | – | – | – | – | 30.8 (≈ 0.0752 µM) | – | – | – | – | – | – | – |
